Measured values reported in patent US8106051B2, “Utilities of amide compounds” (Shionogi & Co., Ltd., priority 2001, dated 2012).

Columns and labels:
[1] = tested on: promoter region of the gene encoding human apoAI; test: Activity to enhance the expression of human apoAI (apoAI promoter-luciferase reporter in HepG2 cells); assay type: cell-based; conditions: HepG2 cells stably expressing human apoAI promoter-firefly luciferase reporter; 24 hours incubation; 0 to 10 μg/mL; control DMSO
Protocol: The promoter region of the gene encoding human apoAI was isolated, and ligated upstream the structure gene of firefly luciferase to construct a reporter plasmid. The reporter plasmid and a marker plasmid conferring the neomycin resistance were co-infected to cell lines derived from human hepatoma, HepG2 cells, and the cell lines were incubated in a selection medium comprising DMEM medium containing 10% fetal calf serum supplemented with G418 (Final concentration: 0.7 mg/mL, Gibco) to give established strains that stably expressed the reporter molecule. The strains were seeded to a 96-well culture plates at a density of 50,000 cells per well, and incubated for 48 hours at 37° C. under an atmosphere of 5% carbon dioxide. Then, a solution of the compounds according to the invention in DMSO was added to the wells at final concentrations of 0 to 10 μg/mL. After further incubation for 24 hours, the cells were added with a luciferase assay reagent (Piccagene LT 7.5 registered trade mark, Toyo Ink, KK), and the luciferase activity was determined using a luminometer (MicroBeta™ TRILUX, 1 sec/well, Wallac). The concentration of the compounds, which intensified the luciferase activity twice compared to that of control (DMSO without any compound of the invention added) was set as the minimal effective dose (MED).

| melting point [°C] | Compound | MED (minimal effective dose): concentration which intensified the luciferase activity twice compared to that of control [1] [µg/mL] |
| --- | --- | --- |
| – | Cc1ccc(NC(=O)c2ccc(Cl)cc2)cc1 [Ib-17, 4-Chloro-N-(4-tolyl)benzamide] | 0.30 |
| 177 to 178 | O=C(C=Cc1ccccc1)Nc1cnc2ccccc2n1 [Ia-9, 3-Phenyl-N-quinoxalin-2-yl-acrylamide] | – |
